Measured values as given in ChEMBL document CHEMBL5052856, “Inhibitors of apol1 and methods of using same” (2021).
pIC50: −log10 of the molar value.

Experiments:
[1] = biological target: Apolipoprotein L1 (Homo sapiens, UniProt O14791); test: Inhibition of APOL1 G1 variant in human HEK293-T-REx cells measured by Thallium assay; format: cell-based
[2] = tested on: Trypanosoma brucei brucei; test: Antitrypanosomal activity against Trypanosoma brucei brucei assessed as trypanosome lysis using recombinant APOL1 protein G1 variant and measured by Alamar blue based fluoresence assay; format: functional, organism-based

pIC50 [1]	Compound	pIC50 [2]
< 6.00	O=C(N[C@H]1COC[C@@H]1O)O[C@H]1C[C@H](c2c(-c3ccc(F)cc3)[nH]c3c(F)cc(F)cc32)C1	–
< 6.00	O=C(NCc1cocn1)C1CC(Cc2c(-c3ccc(F)cc3)[nH]c3c(F)cc(F)cc23)C1 (stereo not drawn)	–
< 6.00	O=C(CNC(=O)[C@H]1C[C@H](c2c(-c3ccc(F)cc3)[nH]c3c(F)cc(F)cc32)C1)NC[C@H](O)C(F)(F)F	–
9.60	CC1(C(=O)NCCO)CC(c2c(-c3ccc(F)cc3)[nH]c3c(F)cc(F)cc23)C1 (stereo not drawn)	–
9.60	CN(C)C(=O)CNCC1CC(c2c(-c3ccc(F)cc3)[nH]c3c(F)cc(F)cc23)C1 (stereo not drawn)	–
< 6.00	O=C(NC[C@H]1C[C@H](c2c(-c3ccc(F)cc3)[nH]c3c(F)cc(F)cc32)C1)N[C@H]1CC[C@H]1O	–
< 6.00	O=C(CC1CC(c2c(-c3ccc(F)cc3)[nH]c3c(F)cc(F)cc23)C1)N[C@H]1CCNC1=O (stereo partly drawn)	–
< 6.00	CC(C)(O)CCNC(=O)C1CC(Cc2c(-c3ccc(F)cc3)[nH]c3c(F)cc(F)cc23)C1 (stereo not drawn)	–
< 6.00	C[C@@H](O)CNC(=O)C1CC(Cc2c(-c3ccc(F)cc3)[nH]c3c(F)cc(F)cc23)C1 (stereo partly drawn)	–
< 6.00	Cc1cc(CNC(=O)O[C@H]2C[C@H](c3c(-c4ccc(F)cc4)[nH]c4c(F)cc(F)cc43)C2)on1	–
9.60	O=C(NCC(F)F)O[C@H]1C[C@H](c2c(-c3ccc(F)cc3)[nH]c3c(F)cc(F)cc32)C1	–
< 6.00	C[C@H](CO)NC(=O)[C@H]1C[C@@H](c2c(-c3ccc(F)cc3)[nH]c3c(F)cc(F)cc32)C1	–
< 6.00	O=C(CC1CC(c2c(-c3ccc(F)cc3)[nH]c3c(F)cc(F)cc23)C1)N[C@@H](CO)C(F)(F)F (stereo partly drawn)	–
9.60	O=C(N[C@@H]1CCNC1=O)O[C@H]1C[C@H](c2c(-c3ccc(F)cc3)[nH]c3c(F)cc(F)cc32)C1	–
< 6.00	O=C(Nc1c[nH][nH]c1=O)C1CC(Cc2c(-c3ccc(F)cc3)[nH]c3c(F)cc(F)cc23)C1 (stereo not drawn)	–
< 6.00	CC(C)(C)[C@H](CO)NC(=O)NC[C@H]1C[C@H](c2c(-c3ccc(F)cc3)[nH]c3c(F)cc(F)cc32)C1	–
< 6.00	O=C(CNC(=O)[C@H]1C[C@H](c2c(-c3ccc(F)cc3)[nH]c3c(F)cc(F)cc32)C1)NC[C@@H](O)C(F)(F)F	–
< 6.00	O=C(N[C@@H]1CCOC1)[C@H]1C[C@@H](c2c(-c3ccc(F)cc3)[nH]c3c(F)cc(F)cc32)C1	–
< 6.00	CCNC(=O)NC[C@H]1C[C@H](c2c(-c3ccc(F)cc3)[nH]c3c(F)cc(F)cc32)C1	–
< 6.00	O=C(N[C@H]1C[C@H](O)C1)[C@H]1C[C@@H](c2c(-c3ccc(F)cc3)[nH]c3c(F)cc(F)cc32)C1	–

pIC50 [1]	Compound	pIC50 [2]
< 6.00	O=C(NCC(O)CO)[C@H]1C[C@@H](c2c(-c3ccc(F)cc3)[nH]c3c(F)cc(F)cc32)C1 (stereo partly drawn)	–
> 6.60	NC(=O)CNC(=O)O[C@H]1C[C@H](c2c(-c3ccc(F)cc3)[nH]c3c(F)cc(F)cc32)C1	–
< 6.00	O=C(N[C@H]1CCOC1)O[C@H]1C[C@H](c2c(-c3ccc(F)cc3)[nH]c3c(F)cc(F)cc32)C1	–
< 6.00	C[C@]1(NC(=O)NC[C@H]2C[C@H](c3c(-c4ccc(F)cc4)[nH]c4c(F)cc(F)cc43)C2)C[C@@H](O)C1	–
< 6.00	CC(NC(=O)C1CC(Cc2c(-c3ccc(F)cc3)[nH]c3c(F)cc(F)cc23)C1)c1ccn(C)n1 (stereo not drawn)	–
< 6.00	CC(CO)(CO)NC(=O)NC[C@H]1C[C@H](c2c(-c3ccc(F)cc3)[nH]c3c(F)cc(F)cc32)C1	–
< 6.00	COC1CC1NC(=O)O[C@H]1C[C@H](c2c(-c3ccc(F)cc3)[nH]c3c(F)cc(F)cc32)C1 (stereo partly drawn)	–
< 6.00	C[C@@H](O)CNC(=O)N[C@H]1C[C@H](c2c(-c3ccc(F)cc3)[nH]c3c(F)cc(F)cc32)C1	–
< 6.00	N#CC(CO)NC(=O)C1CC(Cc2c(-c3ccc(F)cc3)[nH]c3c(F)cc(F)cc23)C1 (stereo not drawn)	–
< 6.00	Cc1nn(C)cc1CNC(=O)C1CC(Cc2c(-c3ccc(F)cc3)[nH]c3c(F)cc(F)cc23)C1 (stereo not drawn)	–
< 6.00	O=C(NC[C@H]1C[C@H](c2c(-c3ccc(F)cc3)[nH]c3c(F)cc(F)cc32)C1)N[C@H]1CC[C@@H]1O	–
< 6.00	CC(CO)N(C)C(=O)NC[C@H]1C[C@H](c2c(-c3ccc(F)cc3)[nH]c3c(F)cc(F)cc32)C1 (stereo partly drawn)	–
< 6.00	O=C(NCC1CCCO1)C1CC(Cc2c(-c3ccc(F)cc3)[nH]c3c(F)cc(F)cc23)C1 (stereo not drawn)	–
9.60	C[C@H](NCC1CC(c2c(-c3ccc(F)cc3)[nH]c3c(F)cc(F)cc23)C1)C(=O)N(C)C (stereo partly drawn)	–
< 6.00	CC[C@@H](CO)NC(=O)NC[C@H]1C[C@H](c2c(-c3ccc(F)cc3)[nH]c3c(F)cc(F)cc32)C1	–
9.60	O=C(NC1CC1)O[C@H]1C[C@H](c2c(-c3ccc(F)cc3)[nH]c3c(F)cc(F)cc32)C1	–
9.60	Cc1ccn(CCNC(=O)[C@H]2C[C@@H](c3c(-c4ccc(F)cc4)[nH]c4c(F)cc(F)cc43)C2)n1	–
< 6.00	CON(C)C(=O)CN[C@H]1C[C@H](c2c(-c3ccc(F)cc3)[nH]c3c(F)cc(F)cc32)C1	–
< 6.00	O=C(N[C@H]1CCOC1)[C@H]1C[C@@H](c2c(-c3ccc(F)cc3)[nH]c3c(F)cc(F)cc32)C1	–

Second part, the compound before the results:

Compound	pIC50 [1]	pIC50 [2]
O=C(NC1(CCO)CC1)[C@H]1C[C@H](c2c(-c3ccc(F)cc3)[nH]c3c(F)cc(F)cc32)C1	9.60	6.60
NC(=O)CNC(=O)[C@H]1C[C@H](c2c(-c3ccc(F)cc3)[nH]c3c(F)cc(F)cc32)C1	> 6.60	> 6.60
O=C([C@H]1C[C@H](c2c(-c3ccc(F)cc3)[nH]c3c(F)cc(F)cc32)C1)N1CCC[C@@H](CO)C1	< 6.00	< 6.00
O=C(N[C@H]1CC[C@@H]1O)[C@H]1C[C@H](c2c(-c3ccc(F)cc3)[nH]c3c(F)cc(F)cc32)C1	< 6.00	6.60
O=C([C@H]1C[C@H](c2c(-c3ccc(F)cc3)[nH]c3c(F)cc(F)cc32)C1)N1CC[C@@H]1CO	> 6.60	> 6.60
O=C([C@H]1C[C@H](c2c(-c3ccc(F)cc3)[nH]c3c(F)cc(F)cc32)C1)N1CC[C@H](CO)[C@H](O)C1	< 6.00	< 6.00
NC(=O)[C@H]1CCCN1C(=O)[C@H]1C[C@H](c2c(-c3ccc(F)cc3)[nH]c3c(F)cc(F)cc32)C1	9.60	< 6.00
O=C1NCCCC1NC(=O)[C@H]1C[C@H](c2c(-c3ccc(F)cc3)[nH]c3c(F)cc(F)cc32)C1 (stereo partly drawn)	9.60	6.60
O=C([C@H]1C[C@H](c2c(-c3ccc(F)cc3)[nH]c3c(F)cc(F)cc32)C1)N1CC(n2cccn2)C1	< 6.00	< 6.00
O=C(NC1(CO)CCOC1)[C@H]1C[C@H](c2c(-c3ccc(F)cc3)[nH]c3c(F)cc(F)cc32)C1 (stereo partly drawn)	> 6.60	> 6.60
O=C(NCC1(O)CCCC1)[C@H]1C[C@H](c2c(-c3ccc(F)cc3)[nH]c3c(F)cc(F)cc32)C1	< 6.00	< 6.00
NC(=O)C1CCN(C(=O)[C@H]2C[C@H](c3c(-c4ccc(F)cc4)[nH]c4c(F)cc(F)cc43)C2)CC1	< 6.00	< 6.00
O=C([C@H]1C[C@H](c2c(-c3ccc(F)cc3)[nH]c3c(F)cc(F)cc32)C1)N1CCCCC1CCO (stereo partly drawn)	< 6.00	< 6.00
O=C([C@H]1C[C@H](c2c(-c3ccc(F)cc3)[nH]c3c(F)cc(F)cc32)C1)N1CCCC(CCO)C1 (stereo partly drawn)	< 6.00	< 6.00
Cc1cc(NC(=O)[C@H]2C[C@H](c3c(-c4ccc(F)cc4)[nH]c4c(F)cc(F)cc43)C2)no1	9.60	6.60
CC1(C)CC(C)(NC(=O)NC[C@H]2C[C@H](c3c(-c4ccc(F)cc4)[nH]c4c(F)cc(F)cc43)C2)C(=O)O1 (stereo partly drawn)	< 6.00	–
CC(=O)NCCNC(=O)C1CC(Cc2c(-c3ccc(F)cc3)[nH]c3c(F)cc(F)cc23)C1 (stereo not drawn)	< 6.00	–
O=C(NC[C@H]1C[C@H](c2c(-c3ccc(F)cc3)[nH]c3c(F)cc(F)cc32)C1)N1CCC[C@@H]1CO	< 6.00	–
C[C@@H](CO)NC(=O)[C@H]1C[C@@H](c2c(-c3ccc(F)cc3)[nH]c3c(F)cc(F)cc32)C1	9.60	–
O=C(NCCO)NC[C@H]1C[C@H](c2c(-c3ccc(F)cc3)[nH]c3c(F)cc(F)cc32)C1	< 6.00	–
CC(CO)NC(=O)O[C@H]1C[C@H](c2c(-c3ccc(F)cc3)[nH]c3c(F)cc(F)cc32)C1 (stereo partly drawn)	9.60	–
Cn1cnc(CNC(=O)C2(C)CC(c3c(-c4ccc(F)cc4)[nH]c4c(F)cc(F)cc34)C2)c1 (stereo not drawn)	9.60	–
CC(C)CC(NC(=O)[C@H]1C[C@@H](c2c(-c3ccc(F)cc3)[nH]c3c(F)cc(F)cc32)C1)C(N)=O (stereo partly drawn)	< 6.00	–
O=C(NCC1(O)CC1)NC[C@H]1C[C@H](c2c(-c3ccc(F)cc3)[nH]c3c(F)cc(F)cc32)C1	< 6.00	–
O=C(NCC1(CO)CC1)C1CC(Cc2c(-c3ccc(F)cc3)[nH]c3c(F)cc(F)cc23)C1 (stereo not drawn)	< 6.00	–
COC1(CNC(=O)C2CC(Cc3c(-c4ccc(F)cc4)[nH]c4c(F)cc(F)cc34)C2)CCOC1 (stereo not drawn)	< 6.00	–
CO[C@H]1C[C@@H](NC(=O)O[C@H]2C[C@H](c3c(-c4ccc(F)cc4)[nH]c4c(F)cc(F)cc43)C2)C1	< 6.00	–
O=C1CC(CNC(=O)C2CC(Cc3c(-c4ccc(F)cc4)[nH]c4c(F)cc(F)cc34)C2)CN1 (stereo not drawn)	< 6.00	–
NC(=O)C(CC(F)(F)F)NCC1CC(c2c(-c3ccc(F)cc3)[nH]c3c(F)cc(F)cc23)C1 (stereo not drawn)	< 6.00	–
